Reference: article PMC10146558, “Highly Cytotoxic Copper(II) Mixed-Ligand Quinolinonato Complexes: Pharmacokinetic Properties and Interactions with Drug Metabolizing Cytochromes P450” (Pharmaceutics, 2023)

Experiments:
[1] = system: human liver microsomal cytochrome P450s
Protocol: (§1) The cuvette contained microsomes diluted to final concentration of CYP 1 µM in 50 mM potassium phosphate buffer (pH 7.4). The tested compounds were dissolved in the same buffer, and their concentrations in the experiments ranged from 0.002 to 33.310 µM. The UV-Visible spectra were recorded at room temperature by repetitive scanning between 300 and 700 nm using Varian 500 UV/VIS spectrophotometer (Agilent Technologies, Wakefield, MA, USA). Changes of absorbance in the range of the Soret’s region (380–450 nm) were plotted against the concentration of the studied compounds. Data were analysed using GraphPad Prism 6 software (La Jolla, CA, USA).

CYP3A4/5 = CYP3A4/5 activity (testosterone 6β-hydroxylation) in human liver microsomes
Protocol: For each enzyme assay, the preliminary experiments to determine Michaelis constant (Km) and limiting velocity (Vmax) were performed to calculate the time of incubation (the specified time for which the reaction is still linear) and the values of substrate concentration (in the range corresponding to the value of Km). The amount of human liver microsomes (HLM; expressed as the amount of CYP in pmol and the concentration of HLM protein in mg/mL in the reaction vessel) in the reaction was determined using previously established protocols [40].
The reaction mixtures were buffered by 0.1 M potassium phosphate buffer (pH 7.4) and contained a NADPH-generating system consisting of the isocitrate dehydrogenase (6 U/mL), NADP^+ (0.5 mM), isocitric acid (4 mM), and MgSO4 (5 mM). The final concentration levels of complexes were obtained by diluting a 10 mM solution with dimethyl sulfoxide (DMSO). It is known that DMSO can in some cases inhibit P450; the following measures were thus applied: (a) control samples containing organic solvent without the tested compounds were prepared and used as references; (b) DMSO levels were maintained below 0.1% to minimise the inhibition. Inhibition experiments were performed using five concentration levels of the tested compounds in the range of 10–100 µM. The maximum concentration was chosen so that in the case of inhibition, it would be possible to determine the inhibitory effect of the complexes and characterise them by determining the IC50 value. Additionally, an inhibitor-free control was used as a reference. Incubations were executed in two independent batches, and the samples were prepared and measured in triplicate at 37 °C.
The type of model was selected on the basis of the Lineweaver–Burk and Dixon plots. The values of IC50 were obtained by analysing the plot of the percentage of activity remaining after inhibition versus the logarithm of the inhibitor concentration using the GraphPad Prism 6 software (La Jolla, CA, USA).

CYP2C19 = target: T1, CYP2C19 (Homo sapiens, UniProt P33261); assay: CYP2C19 activity ((S)-mephenytoin 4′-hydroxylation) in human liver microsomes; assay type: biochemical; details: free ligand, up to 100 μM
T1 construct: Cryopreserved pooled human liver microsomes were obtained from Xenotech; tissue Xenotech (Lenexa, KS, USA); host or cells: pooled human liver microsomes
T1 sequence (P33261 whole entry): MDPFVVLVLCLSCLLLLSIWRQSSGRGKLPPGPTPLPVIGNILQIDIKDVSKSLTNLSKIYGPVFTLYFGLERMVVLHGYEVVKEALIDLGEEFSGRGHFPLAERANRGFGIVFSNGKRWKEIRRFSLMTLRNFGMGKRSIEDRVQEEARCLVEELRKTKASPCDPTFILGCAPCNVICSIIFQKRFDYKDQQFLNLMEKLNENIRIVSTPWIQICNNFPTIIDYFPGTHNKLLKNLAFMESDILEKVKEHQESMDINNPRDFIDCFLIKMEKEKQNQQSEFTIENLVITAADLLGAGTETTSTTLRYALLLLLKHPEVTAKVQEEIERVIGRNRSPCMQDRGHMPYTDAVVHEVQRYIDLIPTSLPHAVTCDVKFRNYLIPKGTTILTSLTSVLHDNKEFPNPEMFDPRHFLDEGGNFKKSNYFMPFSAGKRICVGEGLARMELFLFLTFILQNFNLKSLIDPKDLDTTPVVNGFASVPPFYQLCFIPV
Protocol: (§2) For each enzyme assay, the preliminary experiments to determine Michaelis constant (Km) and limiting velocity (Vmax) were performed to calculate the time of incubation (the specified time for which the reaction is still linear) and the values of substrate concentration (in the range corresponding to the value of Km).
(§3) The reaction mixtures were buffered by 0.1 M potassium phosphate buffer (pH 7.4) and contained a NADPH-generating system consisting of the isocitrate dehydrogenase (6 U/mL), NADP^+ (0.5 mM), isocitric acid (4 mM), and MgSO4 (5 mM). The final concentration levels of complexes were obtained by diluting a 10 mM solution with dimethyl sulfoxide (DMSO). It is known that DMSO can in some cases inhibit P450; the following measures were thus applied: (a) control samples containing organic solvent without the tested compounds were prepared and used as references; (b) DMSO levels were maintained below 0.1% to minimise the inhibition. Inhibition experiments were performed using five concentration levels of the tested compounds in the range of 10–100 µM. The maximum concentration was chosen so that in the case of inhibition, it would be possible to determine the inhibitory effect of the complexes and characterise them by determining the IC50 value. Additionally, an inhibitor-free control was used as a reference. Incubations were executed in two independent batches, and the samples were prepared and measured in triplicate at 37 °C. Analyses of the metabolites formed from the specific substrates were performed by HPLC using the Prominence system (Shimadzu, Kyoto, Japan) equipped with a LiChroCART 250-4 LiChrospher 100 RP-18 column, Chromolith® HighResolution RP-18 end-capped column (Merck, Darmstadt, Germany), or Kinetex Biphenyl column (Phenomenex, Torrace, CA, USA).
(§4) The apparent Ki values were determined by additional measurements using substrate concentrations corresponding to 1/2 Km, Km, 2 Km, and 4 Km in the case of inhibition. The type of model was selected on the basis of the Lineweaver–Burk and Dixon plots. The values of IC50 were obtained by analysing the plot of the percentage of activity remaining after inhibition versus the logarithm of the inhibitor concentration using the GraphPad Prism 6 software (La Jolla, CA, USA).

cytochrome P450 = system: cytochrome P450; design: method as in PMID 26911729; details: ref [50]; cited from earlier work
CYP3A4 = CYP3A4 (Homo sapiens, UniProt P08684); assay: CYP3A4 activity (midazolam 1′-hydroxylation) in human liver microsomes; details: Dixon and Lineweaver–Burk plots
CYP3A4, sequence (P08684 2-503): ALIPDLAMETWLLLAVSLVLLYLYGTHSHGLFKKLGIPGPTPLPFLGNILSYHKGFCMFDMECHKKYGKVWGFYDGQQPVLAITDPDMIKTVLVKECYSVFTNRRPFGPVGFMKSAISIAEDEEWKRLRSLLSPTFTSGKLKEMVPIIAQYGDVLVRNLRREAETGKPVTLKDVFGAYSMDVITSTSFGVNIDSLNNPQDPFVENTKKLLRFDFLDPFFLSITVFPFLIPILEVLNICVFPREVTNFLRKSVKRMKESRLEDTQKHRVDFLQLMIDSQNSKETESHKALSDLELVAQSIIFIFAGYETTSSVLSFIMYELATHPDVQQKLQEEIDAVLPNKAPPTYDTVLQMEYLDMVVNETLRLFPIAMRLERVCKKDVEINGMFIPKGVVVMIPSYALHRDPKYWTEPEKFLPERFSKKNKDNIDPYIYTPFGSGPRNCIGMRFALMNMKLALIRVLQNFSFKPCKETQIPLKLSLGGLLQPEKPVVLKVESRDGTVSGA
Protocol: as §2, §3, §4

[2] = system: human liver microsomal cytochrome P450s; assay: Difference spectra (UV-visible spectral titration) with human liver microsomes; details: read-out: Ks (spectral binding constant); spectral differences at 386 nm, CYP 1 µM, pH 7.4, room temperature
Protocol: as §1

With `O=c1c(O)c(-c2ccccc2)[nH]c2ccccc12` [Hqui, 2-phenyl-3-hydroxy-1H-quinolin-4-one, reference compound] as the compound, how does the “Changes in difference spectra on interaction with microsomal CYPs” value [1] read?
The value was “no significant changes”.

And the “CYP3A4/5 activity remaining (testosterone 6β-hydroxylation), % of basal activity” value (CYP3A4/5; at 100 μM)?
The value was “ca. 60%”.

What about the “Decrease in CYP2C19 activity” value (CYP2C19) of the same compound?
The value was 66%.

With `CC(=O)CC(C)=O.Cc1ccnc2c1ccc1c(C)ccnc12.O=[N+]([O-])[O-].O=[N+]([O-])[O-].[Cu+2]` [[Cu(acac)(4,7-dimethyl-1,10-phenanthroline)(H2O)](NO3)2] as the compound, how does the IC50 (cytochrome P450) read?
Its IC50 is about 10 µM.

Which “Type of inhibition, CYP3A4 (midazolam 1′-hydroxylation)” value (CYP3A4) does the source give for `O.O.O.O=[N+]([O-])[O-].O=[N+]([O-])[O-].[Cu+2]` [copper(II) nitrate trihydrate, reference compound] here?
The value was “non-competitive”.

And the Ki (CYP3A4; read-out: Ki CYP3A4 (midazolam 1′-hydroxylation assay), substrate ½ Km to 4 Km)?
The Ki was 8.25 ± 1.64 µM.

What about the Ki (CYP3A4/5; read-out: Ki CYP3A4/5 (testosterone 6β-hydroxylation assay), Dixon and Lineweaver–Burk plots, substrate ½ Km to 4 Km) of the same compound?
The Ki was 1560 ± 250 nM.

And the Kd [2]?
The Kd was 9.81 ± 0.6 µM.

With `Cc1cc2cccnc2c2ncccc12` [mphen, 5-methyl-1,10-phenanthroline] as the compound, how does the “Changes in difference spectra on interaction with microsomal CYPs” value [1] read?
Its value is “no significant changes”.
